Data reported in patent US20060229358A1, “Pharmaceutical composition containing flavonoids” (Taipei Medical University, priority 2005, published 2006).
Read-outs that look alike come from different tables or passages of the source.

Experiments:
PDE4H (HARBS) [1] = details: cited from earlier work; for PDE4H/PDE4L ratio: references [24-26]
[2] = biological target: T1, high affinity rolipram binding sites (HARBS, PDE4H); assay: Binding to particulate HARBS of whole brain, displacement of [3H]-rolipram (Assay II); parameters: species or system guinea pig; details: 2 nM [3H]-rolipram, guinea pig whole brain particulates, FIG. 2; read-out: IC50 for displacement of [3H]-rolipram from HARBS
T1 construct: IC50 for displacement of [3H]-rolipram from HARBS; other: 300 μM, guinea pig, preliminary experimental data; other: guinea pig whole brain particulates; over 300 μM not available due
Method: The binding experiments are carried on basis of the methods of Schneider et al. and Zhao et al. with a small modification. Under a protocol approved by the Animal Care and Use Committee of Taipei Medical University, five male guinea pigs (Hartley), weighing 500-600 g, were anesthetized. The whole brains taken therefrom were homogenized with in 10 volumes of cold medium (pH 6.5) containing 20 mM Bis-Tris, 2 mM benzamidine, 2 mM EDTA, 50 mM sodium chloride, 0.1 mM phenylmethanesulfonyl fluoride (PMSF), and 1 mM dithiothreitol. At 4° C., the homogenate was centrifuged at 170 g for 15 min for removing blood vessels and connective tissues, and the supernatant thereof was then re-centrifuged at 40,000 g for 30 min for separating the particulates from the cytosol of cells.
After incubation, the reaction was stopped by transferring the reaction vessel to a bath of crashed ice. Then the reaction mixture was filtered through a punched glass fiber filter (Whatman GF/B) placed in a mini funnel, which was adopted to a 1.5 ml of Eppendorff's tube for collecting the filtrate in the mini centrifuge at 1000 rpm for 10 seconds. By the same way (centrifugation), it is further washed with 0.3 ml reaction buffer each for three times. The Whatman GF/B filter was mixed with 2 ml of cocktail and counted by the β-scintillation counter (Backman, Fullerton, Calif., USA) for counting the radioactivity thereof.

PDE4H (HARBS) [3] = assay: Literature binding to brain HARBS (PDE4H); details: worked out from the cited EC50 values
Excerpt: Recently, in United States of American and Europe, the selective inhibitors for the PDE4 are considered as the important materials for treating asthma or chronic obstructive pulmonary disease (COPD). In addition, the clinical trials thereof are considered safe and effective, whereas they have side effects, such as vomiting, gastric hypersecretion, etc.. […] In the brain, there are two binding sites for rolipram, which are high (HARBS) and low affinity rolipram binding sites (LARBS), while in the periphery of bronchi and lung there exist only LARBS. Generally, the anti-inflammatory and the bronchodilatory effects of rolipram are considered as its ability to bind with LARBS [21]. […] Therefore, the pharmaceutical factories in the world are trying to develop drugs with high PDE4H/PDE4L ratio for separating the side effects from the main therapeutic effects, while some progresses are obtained. […] Although the respective PDE4H/PDE4L ratios of roflumilast and cilomilast are much higher than that of rolipram, they are not good enough. […] It seems having a good perspective.

PDE4L (LARBS) = details: reference [23]; read-out: EC50 for binding PDE4L; cited from earlier work

SMILES | PDE4H/PDE4L ratio (PDE4H (HARBS) [1]) | IC50 [2] | PDE4H/PDE4L ratio (PDE4H (HARBS) [3]) | EC50 (PDE4H (HARBS) [1]; reference [23], read-out: EC50 for binding PDE4H) | EC50 (PDE4L (LARBS))
COc1ccc([C@]2(C#N)CC[C@@H](C(=O)O)CC2)cc1OC1CCCC1 [cilomilast] | about 1 |  |  |  | 
O=C(Nc1c(Cl)cncc1Cl)c1ccc(OC(F)F)c(OCC2CC2)c1 [roflumilast] | 3 |  |  |  | 
COc1ccc(C2CNC(=O)C2)cc1OC1CCCC1 (stereo not drawn) [rolipram] |  | 7.4 nM | 0.002 | ~2 nM | ~1000 nM
